Source: ChEMBL document CHEMBL4828727, “Antibacterial and antitumoral properties of 1,2,3-triazolo fused triterpenes and their mechanism of inhibiting the proliferation of HL-60 cells” (Eur J Med Chem, 2021)
In brackets after ≈: the same amount, converted by molar mass. Activity calls are given as the source filed them. No cut-off for these calls is given here.

Assays:
CAPAN-1 = experiment: cells; assay type: functional, cell-based; details: Homo sapiens, CAPAN-1, 72 h
Description: Antiproliferative activity against human CAPAN-1 cells assessed as inhibition of cell viability measured after 72 hrs by colorimetric MTS viability assay

[1] = Antiproliferative activity against human HAP1 cells assessed as inhibition of cell viability measured after 72 hrs by colorimetric MTS viability assay; assay type: functional, cell-based; details: HAP1, 72 h
LN-229 = experiment: Antiproliferative activity against human LN-229 cells assessed as inhibition of cell viability measured after 72 hrs by colorimetric MTS viability assay; assay type: functional, cell-based; details: LN-229, 72 h
HCT-116 = experiment: Antiproliferative activity against human HCT-116 cells assessed as inhibition of cell viability measured after 72 hrs by colorimetric MTS viability assay; assay type: functional, cell-based; details: HCT-116, 72 h
NCI-H460 = experiment: cells; assay type: functional, cell-based; details: Homo sapiens, NCI-H460, 72 h
Description: Antiproliferative activity against human NCI-H460 cells assessed as inhibition of cell viability measured after 72 hrs by colorimetric MTS viability assay

[2] = Antiproliferative activity against human DND41 cells assessed as inhibition of cell viability measured after 72 hrs by real-time IncuCyte proliferation analysis; assay type: functional, cell-based; details: DND41, 72 h
HL-60 = experiment: cells; assay type: functional, cell-based; details: Homo sapiens, HL-60, 72 h
Description: Antiproliferative activity against human HL-60 cells assessed as inhibition of cell viability measured after 72 hrs by real-time IncuCyte proliferation analysis

K562 = experiment: cells; assay type: functional, cell-based; details: Homo sapiens, K562, 72 h
Description: Antiproliferative activity against human K562 cells assessed as inhibition of cell viability measured after 72 hrs by real-time IncuCyte proliferation analysis

Z-138 = experiment: cells; assay type: functional, cell-based; details: Homo sapiens, Z-138, 72 h
Description: Antiproliferative activity against human Z138 cells assessed as inhibition of cell viability measured after 72 hrs by real-time IncuCyte proliferation analysis

Jurkat = experiment: cells; assay type: functional, cell-based; details: Homo sapiens, 72 h
Description: Cytotoxicity against human Jurkat cells assessed as inhibition of cell viability measured after 72 hrs by real-time IncuCyte proliferation analysis

MV4-11 = experiment: cells; assay type: functional, cell-based; details: Homo sapiens, MV4-11, 72 h
Description: Cytotoxicity against human MV4-11cells assessed as inhibition of cell viability measured after 72 hrs by real-time IncuCyte proliferation analysis

Rec1 = experiment: cells; assay type: functional, cell-based; details: Homo sapiens, Rec1, 72 h
Description: Cytotoxicity against human REC1 cells assessed as inhibition of cell viability measured after 72 hrs by real-time IncuCyte proliferation analysis

Staphylococcus aureus = experiment: Antibacterial activity against Staphylococcus aureus ATCC65385 assessed as growth inhibition after 20 hrs by broth microdilution method; assay type: functional
Escherichia coli = experiment: Antibacterial activity against Escherichia coli ATCC47076 assessed as growth inhibition after 20 hrs by broth microdilution method; assay type: functional
[3] = system: Salmonella enterica subsp. enterica; experiment: Antibacterial activity against Salmonella enterica subsp.enterica ATCC13076 assessed as growth inhibition after 20 hrs by broth microdilution method; assay type: functional
Listeria innocua = experiment: Antibacterial activity against Listeria innocua LMG11387 assessed as growth inhibition after 20 hrs by broth microdilution method; assay type: functional

| SMILES | IC50 (CAPAN-1) | IC50 (HCT-116) | IC50 (NCI-H460) | IC50 (HL-60) | IC50 (K562) | IC50 (Z-138) | IC50 (Jurkat) | IC50 (MV4-11) | IC50 (Rec1) | MIC50 (Staphylococcus aureus) | MIC50 (Escherichia coli) | MIC50 [3] | MIC50 (Listeria innocua) | IC50 [1] | IC50 (LN-229) | IC50 [2] |
| --- | --- | --- | --- | --- | --- | --- | --- | --- | --- | --- | --- | --- | --- | --- | --- | --- |
| C[C@H]1[C@H](C)CC[C@]2(C(=O)O)CC[C@]3(C)C(=CC[C@@H]4[C@@]5(C)Cc6nnn(Cc7ccc8[nH]ccc8c7)c6C(C)(C)[C@@H]5CC[C@]43C)[C@H]12 | 4.5 µM | 11.5 µM | 8.6 µM | 1.5 µM | 49.3 µM | 9.4 µM | 3.2 µM | 12.9 µM | 1.7 µM | 37 µg/mL (≈ 60.7 µM) | inactive | inactive | 153 µg/mL (≈ 252 µM) | 4.3 µM | 33.1 µM | 11.5 µM |
| CC1(C)CC[C@]2(C(=O)O)CC[C@]3(C)C(=CC[C@@H]4[C@@]5(C)Cc6nnn(Cc7ccc8[nH]ccc8c7)c6C(C)(C)[C@@H]5CC[C@]43C)[C@@H]2C1 | 4.1 µM | 12 µM | 8.3 µM | 7 µM | 86.1 µM | 10.3 µM | 3.7 µM | 12.8 µM | 2 µM | 95.5 µg/mL (≈ 157 µM) | 41.6 µg/mL (≈ 68.3 µM) | 33 µg/mL (≈ 54.1 µM) | 193 µg/mL (≈ 317 µM) | 3.3 µM | 37.7 µM | 12.1 µM |
| C[C@H]1[C@H](C)CC[C@]2(C(=O)O)CC[C@]3(C)C(=CC[C@@H]4[C@@]5(C)Cc6nnn(CCc7c[nH]c8ccccc78)c6C(C)(C)[C@@H]5CC[C@]43C)[C@H]12 | 4.6 µM | 10.8 µM | 8.8 µM | 5.5 µM | 65.9 µM | 12.2 µM | 3.8 µM | 9.9 µM | 2.5 µM | 132 µg/mL (≈ 212 µM) | inactive | inactive | 118 µg/mL (≈ 189 µM) | 6.3 µM | 35.1 µM | 9 µM |

Continued by falling IC50 (CAPAN-1), values first:

| IC50 (CAPAN-1) | IC50 (HCT-116) | IC50 (NCI-H460) | IC50 (HL-60) | IC50 (K562) | IC50 (Z-138) | IC50 (Jurkat) | IC50 (MV4-11) | IC50 (Rec1) | MIC50 (Staphylococcus aureus) | MIC50 (Escherichia coli) | MIC50 [3] | MIC50 (Listeria innocua) | SMILES | IC50 [1] | IC50 (LN-229) | IC50 [2] |
| --- | --- | --- | --- | --- | --- | --- | --- | --- | --- | --- | --- | --- | --- | --- | --- | --- |
| 9.6 µM | 11.1 µM | 7.6 µM | 1.5 µM | 52.1 µM | 11.6 µM | 4.1 µM | 15.8 µM | 2.1 µM | 274 µg/mL (≈ 439 µM) | 387 µg/mL (≈ 622 µM) | inactive | 255 µg/mL (≈ 409 µM) | CC1(C)CC[C@]2(C(=O)O)CC[C@]3(C)C(=CC[C@@H]4[C@@]5(C)Cc6nnn(CCc7c[nH]c8ccccc78)c6C(C)(C)[C@@H]5CC[C@]43C)[C@@H]2C1 | > 7.9 µM | 55.1 µM | 9.9 µM |
| 9.4 µM | 11 µM | > 100 µM | 3.3 µM | 69.2 µM | 67.4 µM | 2.2 µM | 21.5 µM | 1.8 µM | 199 µg/mL (≈ 327 µM) | 40.8 µg/mL (≈ 67.1 µM) | 29 µg/mL (≈ 47.6 µM) | 90 µg/mL (≈ 148 µM) | CC1(C)CC[C@]2(C(=O)O)CC[C@]3(C)C(=CC[C@@H]4[C@@]5(C)Cc6nnn(Cc7ccc8cc[nH]c8c7)c6C(C)(C)[C@@H]5CC[C@]43C)[C@@H]2C1 | 9.2 µM | 44.4 µM | > 100 µM |
| 6.7 µM | 12.6 µM | 10.6 µM | 9.7 µM | 68.2 µM | 9.9 µM | 5.3 µM | 22.1 µM | 2.6 µM | 180 µg/mL (≈ 296 µM) | 95.8 µg/mL (≈ 157 µM) | 88.7 µg/mL (≈ 146 µM) | 237 µg/mL (≈ 390 µM) | CC1(C)CC[C@]2(C(=O)O)CC[C@]3(C)C(=CC[C@@H]4[C@@]5(C)Cc6nnn(Cc7cccc8[nH]ccc78)c6C(C)(C)[C@@H]5CC[C@]43C)[C@@H]2C1 | 9.7 µM | 47.2 µM | 11 µM |
